Test results published in publication PMC9965520, “An Efficient Peptidomics Screening for Exogenous Substrates and Inhibitory Peptides of the Dipeptidase ACE from Milk Hydrolysate” (Pharmaceutics, 2023).
Where two headings read alike, the source gives them in different places. No end group written: not given here.

How the values were obtained:
ACE [1] = molecular target: T1, ACE (Oryctolagus cuniculus, UniProt P12822); assay: ACE hydrolysis of synthetic substrate candidates monitored by LC-MS at different incubation times; type: in vitro ADME, rabbit; design: ACE (EC 3.4.15.1, 1 unit) from rabbit lungs; purchased Sigma Chemical Co. (St. Louis, MO, USA); host or cells: rabbit lungs (tissue-derived enzyme); conditions: 37 °C; for Substrate content (%) 30min / Substrate content (%) 60min / Substrate content (%) 90min / Substrate content (%) 120min / Substrate content (%) 150min / Substrate content (%) 180min: synthetic peptide with ACE, RS% = As/(As+Ap)x100 from SIC peak areas, LC-MS
T1 sequence (P12822 34-1310): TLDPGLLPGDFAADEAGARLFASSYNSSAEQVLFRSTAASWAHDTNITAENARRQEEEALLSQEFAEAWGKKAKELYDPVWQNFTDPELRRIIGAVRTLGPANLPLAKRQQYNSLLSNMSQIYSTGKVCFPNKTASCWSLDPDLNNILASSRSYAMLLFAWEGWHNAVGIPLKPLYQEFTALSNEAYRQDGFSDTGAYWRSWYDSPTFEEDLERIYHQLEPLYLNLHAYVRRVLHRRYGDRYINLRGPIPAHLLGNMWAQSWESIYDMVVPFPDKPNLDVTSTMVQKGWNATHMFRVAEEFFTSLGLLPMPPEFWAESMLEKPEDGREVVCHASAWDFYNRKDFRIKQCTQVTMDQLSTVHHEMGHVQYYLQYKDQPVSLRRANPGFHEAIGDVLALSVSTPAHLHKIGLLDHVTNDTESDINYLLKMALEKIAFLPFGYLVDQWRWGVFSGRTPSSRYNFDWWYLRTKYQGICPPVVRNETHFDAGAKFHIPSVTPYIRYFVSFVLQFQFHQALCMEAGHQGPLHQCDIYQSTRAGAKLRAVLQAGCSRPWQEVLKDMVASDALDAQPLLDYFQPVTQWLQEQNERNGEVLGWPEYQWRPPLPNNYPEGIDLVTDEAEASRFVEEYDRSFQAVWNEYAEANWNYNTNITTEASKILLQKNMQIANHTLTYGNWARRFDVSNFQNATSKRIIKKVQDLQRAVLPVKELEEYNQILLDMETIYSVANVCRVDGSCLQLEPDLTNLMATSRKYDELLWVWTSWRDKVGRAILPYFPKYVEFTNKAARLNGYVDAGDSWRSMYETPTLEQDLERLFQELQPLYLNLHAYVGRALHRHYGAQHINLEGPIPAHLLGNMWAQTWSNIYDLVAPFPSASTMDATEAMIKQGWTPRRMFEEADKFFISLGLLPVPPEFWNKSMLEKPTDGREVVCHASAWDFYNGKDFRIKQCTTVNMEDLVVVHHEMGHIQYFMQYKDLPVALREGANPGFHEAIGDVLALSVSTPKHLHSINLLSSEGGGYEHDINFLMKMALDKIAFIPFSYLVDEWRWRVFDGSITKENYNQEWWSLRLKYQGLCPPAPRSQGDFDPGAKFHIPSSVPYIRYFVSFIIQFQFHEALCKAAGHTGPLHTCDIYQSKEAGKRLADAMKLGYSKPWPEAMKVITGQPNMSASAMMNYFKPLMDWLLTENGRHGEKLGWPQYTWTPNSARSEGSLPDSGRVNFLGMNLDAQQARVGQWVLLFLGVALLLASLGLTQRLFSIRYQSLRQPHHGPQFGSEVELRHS
Procedure: To confirm the reactivity of the identified peptide candidates towards ACE, the synthetic peptides were individually mixed with ACE and incubated at 37 °C for 3 h. The remaining peptide substrate and the resulting product were analyzed using LC-MS/MS. Meanwhile, the degradation rate of each peptide was monitored every 30 min using LC-MS. The percentage of the remaining substrate (RS%) at each time point was calculated as As/(As + Ap) 100%. In which, As is the selective ion chromatogram (SIC) peak area of remaining substrate and Ap is the peak area of the resulting product. The RS% was further compared with the D/H ratio obtained in Section 2.4.

ACE [2] = molecular target: T1, ACE; assay: ACE inhibitory (ACEI) assay with HHL as substrate, with and without ACE pre-incubation; type: biochemical, rabbit; design: ACE (EC 3.4.15.1, 1 unit) from rabbit lungs; purchased Sigma Chemical Co. (St. Louis, MO, USA); host or cells: rabbit lungs (tissue-derived enzyme); conditions: 37 °C, HA by HPLC-UV 228 nm, mean ± SD, triplicate
Procedure: The ACE inhibitory assay was performed based on the previous report with slight modification. […] The mixture was first incubated at 37 °C statically for 30 min, and then shaken at 200 rpm for another 30 min. The reaction was terminated using 60 µL of HCl (1 M). The hydrolyzed product of HHL, HA, was analyzed by HPLC (Hitachi Chromaster, Tokyo, Japan) equipped with a NUCLEODUR® C18 HTec column (4.6 mm × 250 mm; particle size 5 µm, Macherey-Nagel, Düren, Germany) and quantified by its chromatographic peak area. The mixture was separated using an isocratic elution with the solution containing 24% ACN and 0.1% TFA at a constant flow rate of 1 mL/min. The substrate and product were monitored using a UV-Vis detector at a wavelength of 228 nm. The ACEI activity (%) was calculated as shown below: ACEI activity (%) = [1 – (Ainhibitor/Ablank)] × 100% where Ainhibitor and Ablank were the resulting HA peak areas in the mixtures with and without inhibitors, respectively. Along with the peptide substrate’s ACEI activity, its IC50 value was also determined using a nonlinear regression between ACE inhibition (%), and the logarithm of inhibitor concentrations could be carried out with GraphPad Prism 5.0 (GraphPad Software, Inc., La Jolla, CA, USA).

ACE [3] = molecular target: T1, ACE; conditions: Ang-I (1 μg) + peptide (1 μg), ACE 0.05 mU/µL, 200 mM borate buffer, 300 mM NaCl, pH 8.3, 37 °C, 3 h; RA% = AI/(AI+AII)x100, LC-MS SIC
Procedure: To a mixture of Ang-I (1 μg) and peptide substrate (1 μg) in 50 µL of borate buffe (200 mM borate buffer, 300 mM NaCl, pH 8.3), 20 µL of ACE (0.05 mU/µL) was added. The mixture was incubated at 37 °C and monitored using LC-MS/MS at 1, 2, 3, 4, 6, and 10 h. The LC separation was performed on Syncronis C18 column (150 mm × 2.1 mm, 5 µm, Thermo Scientific) and eluted with the mobile phase A (5% ACN and 0.1% FA) and B (95% ACN and 0.1% FA) at a flow rate of 350 µL/min. The elution gradient was programmed as (i) 0–5 min, isocratic elution with 5% B; (ii) 5–20 min, linear gradient from 5% to 55% B; (iii) 20–22 min, linear gradient from 55% to 80% solution B; and finally (iv) 22–30 min, isocratic elution maintained at 80% solution B. The degradation of Ang-I and the formation of Ang-II were analyzed using selective ion chromatogram (SIC) on a triple quadrupole mass analyzer (TSQ, Thermo Scientific). The percentage of the remaining angiotensin I (RA%) at each time point was calculated as AI/(AI + AII) × 100%, where AI is the SIC peak area of remaining Ang-I and AII is the peak area of the resulting Ang-II.

[4] = no ACE pre-incubation, 2.5 mM HHL, ACE 0.05 mU/µL, borate buffer, 30 min static + 30 min 200 rpm, read-out: IC50 (μM) (Regular Assay)
[5] = peptide pre-incubated with ACE, then HHL assay, read-out: IC50 (μM) (Pre-Incubation)

Substance | Substrate content (%) 30min (ACE [1]) | Substrate content (%) 60min (ACE [1]) | Substrate content (%) 90min (ACE [1]) | Substrate content (%) 120min (ACE [1]) | Substrate content (%) 150min (ACE [1]) | Substrate content (%) 180min (ACE [1]) | IC50 (ACE [2]; [4]) | IC50 (ACE [2]; [5]) | Ang-I remained (RA%) on co-incubation with peptide (ACE [3]) | Hydrolysis of synthetic peptide by ACE (result in words) (ACE [1]; synthetic peptide incubated with ACE, 3 h, LC-MS/MS)
LHLPLPLL [LL-8] | 58.04% | 37.06% | 22.61% | 11.41% | 7.12% | 6.82% | 12.3 ± 0.37 µM | 71.9 ± 2.19 µM | – | –
HLPLPLLQSW [HW-10] | 2.47% | 0.00% | 0.00% | 0.00% | 0.00% | 0.00% | 10.6 ± 0.17 µM | 17.8 ± 0.65 µM | – | –
AYFYPELFR [AR-9] | 2.40% | 1.59% | 0.00% | 0.00% | 0.00% | 0.00% | 6.8 ± 0.23 µM | 25.3 ± 0.96 µM | 73.9% | –
YVPLGTQ [YQ-7] | 8.35% | 7.02% | 6.54% | 6.41% | 6.27% | 5.83% | 250 ± 7.9 µM | 189 ± 9.6 µM | – | –
LVYPFPGPIHNSL [LL-13] | 7.80% | 7.20% | 6.25% | 5.68% | 2.64% | 1.05% | 38.9 ± 2.05 µM | 27.3 ± 2.16 µM | – | –
FFVAPFPEVF [FF-10] | 76.08% | 49.76% | 34.59% | 32.31% | 21.80% | 14.21% | 104 ± 2.47 µM | 44.6 ± 3.06 µM | – | partially hydrolyzed
